# Results reported in patent US11739101B2, “Bifunctional degraders of hematopoietic progenitor kinase and therapeutic uses thereof” (Nurix Therapeutics, Inc., priority 2020, dated 2023).
# Target: T1, HPK1 (Homo sapiens, UniProt Q92918)
# T1 construct: A HiBiT tag was introduced by CRISPR on the N terminus of HPK1 in Jurkat cells; host or cells: Jurkat (ATCC TIB-152), monoclonal CRISPR HiBiT knock-in line
# Test: HPK1 Cellular HiBiT Degradation Assay
# Format: cell-based
# Details: HiBiT-tagged HPK1 Jurkat cells, 24 hours, 10 uM to 0.1 nM; Dmax = 100 minus lowest % HPK1 remaining vs DMSO vehicle
# Outline: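 Jurkat cells with CRISPR N-terminal HiBiT-tagged HPK1 were exposed to an 11-point 3.16-fold dilution series, 10 uM to 0.1 nM final, for 24 hours at 37° C./5% CO2. HPK1 was read by HiBiT lytic luminescence against DMSO as 100% and parental cells as background. Dmax is 100 minus the lowest % remaining from a four-parameter fit, with a parallel CellTiter-Glo viability check.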
# T1 sequence (Q92918 whole entry): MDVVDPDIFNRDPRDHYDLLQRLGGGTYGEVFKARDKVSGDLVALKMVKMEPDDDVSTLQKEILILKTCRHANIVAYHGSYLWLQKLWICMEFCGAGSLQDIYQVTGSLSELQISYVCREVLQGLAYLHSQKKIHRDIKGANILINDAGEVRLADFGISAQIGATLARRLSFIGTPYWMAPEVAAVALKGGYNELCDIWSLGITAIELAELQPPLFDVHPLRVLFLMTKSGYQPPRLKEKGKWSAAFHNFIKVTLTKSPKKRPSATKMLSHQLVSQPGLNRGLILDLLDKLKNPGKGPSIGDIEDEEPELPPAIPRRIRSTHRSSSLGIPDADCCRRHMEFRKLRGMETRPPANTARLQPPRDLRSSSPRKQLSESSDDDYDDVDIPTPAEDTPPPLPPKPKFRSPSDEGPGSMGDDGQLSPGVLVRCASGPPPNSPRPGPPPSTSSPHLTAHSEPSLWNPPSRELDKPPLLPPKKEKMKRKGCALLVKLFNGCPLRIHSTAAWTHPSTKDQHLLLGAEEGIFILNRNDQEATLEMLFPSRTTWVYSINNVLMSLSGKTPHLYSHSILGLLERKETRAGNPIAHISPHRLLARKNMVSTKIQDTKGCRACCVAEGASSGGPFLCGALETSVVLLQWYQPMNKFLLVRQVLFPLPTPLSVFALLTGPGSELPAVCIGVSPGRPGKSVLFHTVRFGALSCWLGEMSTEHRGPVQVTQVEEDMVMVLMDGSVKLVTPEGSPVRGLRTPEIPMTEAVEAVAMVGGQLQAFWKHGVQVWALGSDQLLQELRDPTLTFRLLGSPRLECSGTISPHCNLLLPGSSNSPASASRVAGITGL
row,Compound,Dmax [%]
1,"Cc1cc(F)c(Nc2nc(-c3ccc4c(c3)N([C@H]3C[C@@H](N5CCCCC5)C3)C(=O)C43CCN(C(=O)[C@@H]4CCN(C(=O)[C@H]5CC[C@H](Nc6ccc7c(c6)C(=O)N(C6CCC(=O)NC6=O)C7=O)CC5)C4)CC3)cc3ncn(C(C)C)c23)cc1C(=O)NC(C)C (stereo partly drawn) [Example 81, 5-((6-(1′-((3R)-1-((1R,4R)-4-((2-(2,6-dioxopiperidin-3-yl)-1,3-dioxoisoindolin-5-yl)amino)cyclohexane-1-carbonyl)pyrrolidine-3-carbonyl)-2-oxo-1-((1s,3s)-3-(piperidin-1-yl)cyclobutyl)spiro[indoline-3,4′-piperidin]-6-yl)-3-isopropyl-3H-imidazo[4,5-c]pyridin-4-yl)amino)-4-fluoro-N-isopropyl-2-methylbenzamide]",45 to 65
2,"Cc1cc(F)c(Nc2nc(-c3ccc4c(c3)N([C@H]3C[C@@H](N5CCCCC5)C3)C(=O)C43CCN(C(=O)c4cnn(C[C@H]5CC[C@H](Nc6cccc7c6C(=O)N(C6CCC(=O)NC6=O)C7=O)CC5)c4)CC3)cc3ncn(C(C)C)c23)cc1C(=O)NC(C)C (stereo partly drawn) [Example 70, 4-fluoro-2-methyl-5-({6-[2-oxo-1′-(1-{[(1R,4R)-4-({2-[2,6-dioxopiperidin-3-yl]-1,3-dioxo-2,3-dihydro-1H-isoindol-4-yl}amino)cyclohexyl]methyl}-1H-pyrazole-4-carbonyl)-1-[(1s,3s)-3-(piperidin-1-yl)cyclobutyl]-1,2-dihydrospiro[indole-3,4′-piperidin]-6-yl]-3-(propan-2-yl)-3H-imidazo[4,5-c]pyridin-4-yl}amino)-N-(propan-2-yl)benzamide]",45 to 65
3,"Cc1cc(F)c(Nc2nc(-c3ccc4c(c3)N([C@H]3C[C@@H](N5CCCCC5)C3)C(=O)C43CCN(C(=O)CN4CCN(CCCc5cccc6c5C(=O)N(C5CCC(=O)NC5=O)C6=O)CC4)CC3)cc3ncn(C(C)C)c23)cc1C(=O)NC(C)C (some centres unmarked) [Example 21, 5-{[6-(1′-{2-[4-(3-{2-[2,6-dioxopiperidin-3-yl]-1,3-dioxo-2,3-dihydro-1H-isoindol-4-yl}propyl)piperazin-1-yl]acetyl}-2-oxo-1-[(1s,3s)-3-(piperidin-1-yl)cyclobutyl]-1,2-dihydrospiro[indole-3,4′-piperidin]-6-yl)-3-(propan-2-yl)-3H-imidazo[4,5-c]pyridin-4-yl]amino}-4-fluoro-2-methyl-N-(propan-2-yl)benzamide]",< 45

# The next lines start with the values.
row,Dmax [%],Compound
1,< 45,"Cc1cc(F)c(Nc2nc(-c3ccc4c(c3)N([C@H]3C[C@@H](N5CCCCC5)C3)C(=O)C43CCN(C(=O)c4ccc(N5CCN(c6cccc7c6C(=O)N(C6CCC(=O)NC6=O)C7=O)CC5)nc4)CC3)cc3ncn(C(C)C)c23)cc1C(=O)NC(C)C (some centres unmarked) [Example 83, 5-((6-(1′-(6-(4-(2-(2,6-dioxopiperidin-3-yl)-1,3-dioxoisoindolin-4-yl)piperazin-1-yl)nicotinoyl)-2-oxo-1-((1s,3)-3-(piperidin-1-yl)cyclobutyl)spiro[indoline-3,4′-piperidin]-6-yl)-3-isopropyl-3H-imidazo[4,5-c]pyridin-4-yl)amino)-4-fluoro-N-isopropyl-2-methylbenzamide]"
2,< 45,"Cc1cc(F)c(Nc2nc(-c3ccc4c(c3)N([C@H]3C[C@@H](N5CCCCC5)C3)C(=O)C43CCN(C(=O)C4CN(C5CCN(c6ccc7c(c6)C(=O)N(C6CCC(=O)NC6=O)C7=O)CC5)C4)CC3)cc3ncn(C(C)C)c23)cc1C(=O)NC(C)C (some centres unmarked) [Example 24, 5-[(6-{1′-[1-(1-{2-[2,6-dioxopiperidin-3-yl]-1,3-dioxo-2,3-dihydro-1H-isoindol-5-yl}piperidin-4-yl)azetidine-3-carbonyl]-2-oxo-1-[(1s,3s)-3-(piperidin-1-yl)cyclobutyl]-1,2-dihydrospiro[indole-3,4′-piperidin]-6-yl}-3-(propan-2-yl)-3H-imidazo[4,5-c]pyridin-4-yl)amino]-4-fluoro-2-methyl-N-(propan-2-yl)benzamide]"
